Reference: ChEMBL document CHEMBL4308841, “Synthesis, in vitro antiproliferative activity, and kinase inhibitory effects of pyrazole-containing diarylureas and diarylamides” (Eur J Med Chem, 2018)

Key:
NCI/ADR-RES = assay: Growth inhibition of human NCI/ADR-RES cells assessed as cell growth at 100 uM incubated for 48 hrs by sulforhodamine B assay relative to control; format: functional; settings: read-out: Activity
HCT-15 = assay: Growth inhibition of human HCT15 cells assessed as cell growth at 0.1 uM incubated for 48 hrs by sulforhodamine B assay relative to control; format: functional; settings: HCT-15, 48 h, read-out: Activity
SK-MEL-2 = assay: Growth inhibition of human SK-MEL-2 cells assessed as cell growth at 1 uM incubated for 48 hrs by sulforhodamine B assay relative to control; format: functional; settings: SK-MEL-2, 48 h, read-out: Activity
IGROV-1 = assay: Growth inhibition of human IGROV1 cells assessed as cell growth at 0.01 uM incubated for 48 hrs by sulforhodamine B assay relative to control; format: functional; settings: IGROV-1, 48 h, read-out: Activity
COLO 205 = assay: Growth inhibition of human COLO205 cells assessed as cell growth at 0.1 uM incubated for 48 hrs by sulforhodamine B assay relative to control; format: functional; settings: COLO 205, 48 h, read-out: Activity
NCI-H322M = assay: Growth inhibition of human NCI-H322M cells assessed as cell growth at 100 uM incubated for 48 hrs by sulforhodamine B assay relative to control; format: functional; settings: read-out: Activity
MDA-MB-231 = assay: Growth inhibition of human MDA-MB-231 cells assessed as cell growth at 0.01 uM incubated for 48 hrs by sulforhodamine B assay relative to control; format: functional; settings: MDA-MB-231, 48 h, read-out: Activity
MOLT-4 = assay: Growth inhibition of human MOLT4 cells incubated for 48 hrs by sulforhodamine B assay; format: functional, cell-based; settings: MOLT-4, 48 h
SK-OV-3 = assay: Growth inhibition of human SKOV3 cells assessed as cell growth at 100 uM incubated for 48 hrs by sulforhodamine B assay relative to control; format: functional; settings: SK-OV-3, 48 h, read-out: Activity
NCI-H226 = assay: Growth inhibition of human NCI-H226 cells assessed as cell growth at 0.01 uM incubated for 48 hrs by sulforhodamine B assay relative to control; format: functional; settings: NCI-H226, 48 h, read-out: Activity
HOP-92 = assay: Growth inhibition of human HOP92 cells assessed as cell growth at 10 uM incubated for 48 hrs by sulforhodamine B assay relative to control; format: functional; settings: HOP-92, 48 h, read-out: Activity
[1] = read-out: LC50 (the source's name)
[2] = read-out: pLC50 (the source's name) (converted)

| SMILES | growth at 100 µM (NCI/ADR-RES) [%] | growth at 0.1 µM (HCT-15) [%] | growth at 1 µM (SK-MEL-2) [%] | growth at 0.01 µM (IGROV-1) [%] | growth at 0.1 µM (COLO 205) [%] | growth at 100 µM (NCI-H322M) [%] | growth at 0.01 µM (MDA-MB-231) [%] | GI50 (MOLT-4; read-out: GI50) [µM] | CC50 (MOLT-4; [1]) [µM] | TGI (MOLT-4; read-out: TGI) [µM] | GI50 (MOLT-4; read-out: pGI50 (converted)) [µM] | CC50 (MOLT-4; [2]) [µM] | TGI (MOLT-4; read-out: pTGI (converted)) [µM] | growth at 100 µM (SK-OV-3) [%] | growth at 0.01 µM (NCI-H226) [%] | growth at 10 µM (HOP-92) [%] |
| --- | --- | --- | --- | --- | --- | --- | --- | --- | --- | --- | --- | --- | --- | --- | --- | --- |
| O=C(Nc1cccc(-n2cc(-c3ccncc3)c(-c3cc(O)cc(Cl)c3)n2)c1)c1ccc(N2CCOCC2)c(C(F)(F)F)c1 | 25 | 94 | 77 | 93 | 104 | 21 | 100 | 1.11 | > 100 | 43.6 | 1.12 | > 100 | 4.47 | 19 | 98 | – |
| COc1cc(Cl)cc(-c2nn(-c3cccc(NC(=O)c4cc(C(F)(F)F)cc(C(F)(F)F)c4)c3)cc2-c2ccncc2)c1 | – | – | – | – | – | – | – | – | – | – | – | – | – | – | – | 46.8 |
| O=C(Nc1cccc(-n2cc(-c3ccncc3)c(-c3cc(O)cc(Cl)c3)n2)c1)c1cc(C(F)(F)F)cc(C(F)(F)F)c1 | 9 | 90 | 106 | 100 | 102 | 13 | 98 | 2.38 | > 100 | > 100 | 2.4 | > 100 | > 100 | 30 | 95 | – |
| COc1cc(Cl)cc(-c2nn(-c3cccc(NC(=O)Nc4ccc(Cl)c(C(F)(F)F)c4)c3)cc2-c2ccncc2)c1 | -15 | 54 | 84 | 112 | 99 | -22 | 93 | 1.23 | > 100 | 45.5 | 1.23 | > 100 | 4.68 | -39 | 97 | – |
| O=C(Nc1cccc(-n2cc(-c3ccncc3)c(-c3cc(O)cc(Cl)c3)n2)c1)Nc1ccc(Cl)c(C(F)(F)F)c1 | -15 | 88 | 104 | 94 | 95 | -81 | 105 | 1.99 | > 100 | 58.1 | 2 | > 100 | 5.75 | -15 | 97 | – |
| COc1cc(Cl)cc(-c2nn(-c3cccc(NC(=O)c4cccc(C(F)(F)F)c4)c3)cc2-c2ccncc2)c1 | 31 | 91 | 56 | 94 | 101 | 75 | 102 | 2.73 | > 100 | > 100 | 2.75 | > 100 | > 100 | 78 | 95 | – |
| COc1cc(Cl)cc(-c2nn(-c3cccc(NC(=O)c4ccc(N5CCOCC5)c(C(F)(F)F)c4)c3)cc2-c2ccncc2)c1 | 30 | 85 | 98 | 103 | 100 | 48 | 99 | 5.49 | > 100 | > 100 | 5.5 | > 100 | > 100 | 70 | 94 | – |
| COc1cc(Cl)cc(-c2nn(-c3cccc(NC(=O)Nc4ccc(Cl)c(Cl)c4)c3)cc2-c2ccncc2)c1 | -3 | 53 | 80 | 98 | 103 | 3 | 109 | 1.59 | > 100 | 61.3 | 1.7 | > 100 | 6.17 | – | 96 | – |
| O=C(Nc1cccc(-n2cc(-c3ccncc3)c(-c3cc(O)cc(Cl)c3)n2)c1)Nc1ccc(Cl)c(Cl)c1 | 2 | 95 | 56 | 98 | 103 | -24 | 94 | 1.43 | > 100 | 51.8 | 1.41 | > 100 | 5.13 | -22 | 94 | -30.5 |
| COc1cc(Cl)cc(-c2nn(-c3cccc(NC(=O)Nc4cccc(C(F)(F)F)c4)c3)cc2-c2ccncc2)c1 | -22 | 83 | 85 | 106 | 101 | -8 | 102 | 1.13 | > 100 | 43.5 | 1.12 | > 100 | 4.37 | -3 | 95 | -27.3 |
